Source: PMC7156612, “Olinciguat, an Oral sGC Stimulator, Exhibits Diverse Pharmacology Across Preclinical Models of Cardiovascular, Metabolic, Renal, and Inflammatory Disease” (Frontiers in Pharmacology, 2020)
Where two headings read alike, the source gives them in different places.

What was measured:
[1] = Olinciguat plasma concentration in hemodynamic study (pooled Wistar and SHR); format: in vivo, rat; settings: for concentration at 1 h: male, Wistar and SHR (spontaneously hypertensive rat), pooled, rat, plasma, oral, mean and SEM of 6 animals (n=3 Wistar, n=3 SHR), read-out: average plasma concentration 1 h after dosing on Day 4
Procedure: Blood from i.v. and p.o. dosed rats was collected at 16 timepoints (2 groups of rats, 8 timepoints per group) over 24 h. Samples were collected into potassium ethylenediamine tetraacetic acid (K2EDTA) tubes, centrifuged (3,500 rpm for 10 min) to yield plasma. In the pharmacokinetic studies and in all in vivo studies, olinciguat plasma concentrations were determined by LC-MS/MS. Pharmacokinetic (PK) parameters were calculated by noncompartmental analysis using sparse sampling in Phoenix® WinNonLin® v.6.3 (Certara, Princeton, NJ).
Spontaneously hypertensive rats (SHRs) (n=6, male, 230–250 g, 14 weeks of age) and Wistar rats (n=6, male, 230–250 g, 12 weeks of age) were implanted with telemetry transmitters as described above. Olinciguat was formulated as a suspension in a vehicle containing 0.5% methylcellulose and 0.2% Tween. Rats were p.o. dosed with a dosing volume of 5 ml/kg. In a weekly-dose escalation design, rats were administered vehicle (week 1), olinciguat 1 mg/kg (week 2), 3 mg/kg (week 3), and 10 mg/kg (week 4). For each dose level, rats were dosed once daily (QD) for 4 days. Using plasma from tail vein, olinciguat plasma concentrations were determined at 1, 6, and 24 h post-dose on day 4 and reported as the mean from Wistar (n=3) and SHR (n=3). Hemodynamics were recorded hourly during a 24-h baseline period and over the first 3 days of dosing.

[2] = tested on: human subcutaneous resistance arteries; assay: Human vascular smooth muscle relaxation (U46619-precontracted arteries); format: cell-based; settings: for EC50: Homo sapiens
Procedure: The effect of olinciguat on relaxation of contracted human subcutaneous resistance arteries was determined according to methods described in ([Tobin et al., 2018]). In brief, human subcutaneous resistance arteries were obtained from three donors (females ages 27–51) undergoing elective surgeries. Arteries were mounted in a tissue bath and precontracted with the thromboxane mimetic, U46619 (100 nM). Only tissues containing functional endothelium, as determined by relaxation in response to acetylcholine (10 µM), were used. A cumulative concentration-response curve (0.1 to 10 µM) was generated for olinciguat, followed by addition of the NO donor sodium nitroprusside (100 μM). Percent relaxation at each olinciguat concentration was determined relative to the U46619-mediated contraction. Using GraphPad Prism v.7, a sigmoidal dose-response (variable slope) curve was fit with the bottom value constrained to zero to determine the EC50.

[3] = Quantitative whole-body autoradiography in Long-Evans rats; format: in vivo, rat; settings: single p.o. 3 mg/kg, 14C-derived radioactivity
Procedure: Quantitative whole-body autoradiography (QWBA) assays were performed at QPS, LLC (Newark, DE) as described previously (Solon et al., 2002). Male Long-Evans (LE) rats (218–262 g, n=11, Hilltop Lab Animals, Inc., Scottdale, PA) were studied. All rats were administered a single p.o. dose of [^14C]-olinciguat at a target dose of 3 mg/kg and approximately 200 µCi/kg formulated in PEG 400 in water (60:40 v/v). Immediately prior to euthanasia, blood was obtained via cardiac puncture for plasma radioactivity determinations by liquid scintillation counting. At each timepoint (1, 2, 4, 8, 12, 24, 48, 72, 96, 168, and 504 h post-dose), one rat was euthanized by immersion in a hexane/solid carbon dioxide bath and frozen for at least 15 min for QWBA analysis. Each frozen rat carcass was embedded in a 2% carboxymethylcellulose matrix with a microtome stage at −20°C. Concentrations of radioactivity were used to determine the concentration of compound equivalents in each tissue and in plasma using the Specific Activity of 66.7 µCi/mg of [^14C]-olinciguat. Whole body sections for each rat were mounted on a cardboard backing, covered with thin plastic wrap, and exposed along with calibration standards of [^14C]-glucose at 10 different concentrations (0.00096 to 7.8 µCi/g) to a ^14C-sensitive phosphor imaging plate (Fuji Biomedical, Stamford, CT). Imaging plates were scanned using the Typhoon 9410 image acquisition system (GE/Molecular Dynamics, Sunnyvale, CA, USA). Radioactivity concentration in tissues was quantified by image densitometry using MCID image analysis software (v. 7.0, Interfocus Imaging Ltd) and a standard curve constructed from the integrated response (molecular dynamics counts/mm^2) and the nominal concentrations of [^14C]-glucose standards. Tissue concentration data were obtained for virtually all tissues (see Supplemental Materials). The concentrations of radioactivity were expressed as the microgram equivalents of [^14C]-olinciguat per gram of sample. An upper and lower limit of quantification, determined by using the radioactive concentration of the highest and lowest calibration standards divided by the specific activity of the test article in formulation, was applied to the data. Phoenix® WinNonLin® v.6.3 was used to determine PK parameters, including maximal concentration (Cmax) and area under the curve of all observed points (AUCall). Tissue:plasma AUCall ratios were determined.

Olinciguat concentration (free) ([1]; 10 mg/kg, pooled samples from Wistar and SHR, total plasma concentration x 1.0% free): 1.6–3.3 nM^a,e
concentration at 1 h ([1]; 1 mg/kg p.o. QD): 0.0573 ± 0.0387 µM
concentration at 1 h ([1]; 3 mg/kg p.o. QD): 0.132 ± 0.03 µM
concentration at 1 h ([1]; 10 mg/kg p.o. QD): 0.245 ± 0.086 µM
EC50 ([2]; Table 2 summary, read-out: Human vascular relaxation EC50, olinciguat concentration (range = 95% CI)): 0.016 to 0.038 µM
EC50 ([2]; pre-contracted with U46619 100 nM, n=3 donors, 95% CI 16 to 38 nM, read-out: EC50, relaxation of pre-contracted arteries): 0.0243 µM
AUCall blood-to-plasma ratio [3]: 0.73
tissue:plasma AUCall ratio, adrenal gland [3]: 2.41
tissue:plasma AUCall ratio, cecum [3]: 4.63
tissue:plasma AUCall ratio, esophagus [3]: 2.01
tissue:plasma AUCall ratio, kidney cortex [3]: 13.6
tissue:plasma AUCall ratio, kidney medulla [3]: 5.14
tissue:plasma AUCall ratio, liver [3]: 50.3
tissue:plasma AUCall ratio, remaining eight tissues (all four measured regions of the brain, spinal cord, bone, eye lens) [3]: ≤ 0.1
tissue:plasma AUCall ratio, small intestine [3]: 27.5
tissue:plasma AUCall ratio, urinary bladder [3]: 2.62
tissue:plasma ratio, aorta [3]: 0.92
tissue:plasma ratio, brown adipose [3]: 1.16
tissue:plasma ratio, heart [3]: 0.84
tissue:plasma ratio, lung [3]: 0.86
tissue:plasma ratio, skeletal muscle [3]: 0.52
tissue:plasma ratio, white adipose [3]: 0.67
Compound: NC(=O)[C@](O)(CNc1nc(-c2cc(-c3ccon3)n(Cc3ccccc3F)n2)ncc1F)C(F)(F)F [olinciguat, (R)-3,3,3-trifluoro-2-(((5-fluoro-2-(1-(2-fluorobenzyl)-5-(isoxazol-3-yl)-1H-pyrazol-3-yl)pyrimidin-4-yl)amino)methyl)-2-hydroxypropanamide]
mean relaxation at 10 μM ([2]; 10 μM olinciguat, relative to U46619-mediated contraction): 94.8%
